“And” between values parts separate entries of the source, which are not always exact repeats. Equal values may be shown once.
Key:
Assay type in all cases: in vivo
[1] = system: Chloroquine (CQ)-Induced Itch Model in Male C57BL/6 Mice; assay: Chloroquine Induced Itch Model, PF-06372865 (Example 1)
Method: PF-06372865 was evaluated as an antipruritic and/or antidermatitis agent using a Chloroquine Induced Itch Model in male C57BL/6 mice.
Male C57BL/6 Mice (8-10 weeks) were used in the study. Animals were procured from CRL, Hylasco (CPSCEA registered animal supplier).
Mice were housed one per cage and maintained at controlled environmental conditions with 12-h light and dark cycles. The temperature and humidity of the room were maintained between 22±3° C. and 55±5%, respectively. The maximum and minimum temperature and relative humidity in the experimental rooms were recorded once daily. […]
PF-06372865 was weighed into a clean mortar. Liquefied Solutol (i.e., Polyoxyl 15 Hydroxystearate) was added drop wise and triturated using a pestle for 2-3 minutes, then Glycerol formal was added and mixed in same fashion. The volume was made up by slowly adding the required volume of water. The resulting mixture was mixed well using mild vortexing to provide a homogeneous suspension. (Details in below chart)
27 mg of chloroquine phosphate was weighed in a clean glass container. 6 mL PBS was added, and the resulting mixture was mixed well using mild vortexing to form the desired strength solution.
The right-side cheek area of all the animals was shaved with animal clippers 1 day prior to the experiment. Animals were randomized into different treatment groups (n=9/group) based on body weight to avoid variability in weights across groups. NCT10004 Phosphate and PF-06372865 formulations and chloroquine phosphate solution were prepared on the day of the experiment.
(§1) Animals were dosed per oral with respective treatment group using a dose volume of 10 ml/kg. Times of dosing were recorded. Immediately after compound treatment, animals were kept in an empty transparent chamber (23 cm length×17 cm width) for acclimatization and observation.
(§2) Ninety (90) minutes post compound dosing, 50-μl of chloroquine phosphate solution (a 200-μg dose) was injected intracutaneously into the animal's right cheek. Animals were returned to the same chamber for observation. Animals were observed by an observer blind to the treatment group for a period of 30 minutes post chloroquine injection. Total number of bouts of scratching directed at the ipsilateral cheek were recorded for 30 minutes.

Male C57BL/6 Mice = assay: Sedation, behavioral change and clinical signs observed in Example 1
Method: as §1, §2

[2] = system: Histamine-Induced Itch Model in Male C57BL/6 Mice; assay: Histamine-Induced Itch Model (Example 3); settings: oral gavage 90 min before 100 μg histamine cheek injection; 1, 3, 10, 30 and 100 mg/kg
Method: PF-06372865 (an alpha 2, alpha 3, and alpha 5 agonist; and an alpha 1 antagonist) is assessed for its antipruritic effects against a cheek injection of 100 μg histamine in wild-type C57BL/6 mice. The mice are dosed with PF-06372865 by oral gavage ninety (90) minutes before histamine injection. Doses of PF-06372865 are vehicle, 1, 3, 10, 30 and 100 mg/kg.

[3] = system: Non-Histamine-Induced Itch Model in Male C57BL/6 Mice; assay: Non-Histamine (chloroquine)-Induced Itch Model (Example 5); settings: oral gavage 90 min before chloroquine; 1, 3, 10, 30 and 100 mg/kg
Method: The mice are dosed with PF-06372865 by oral gavage ninety (90) minutes before chloroquine injection. Doses of PF-06372865 are 1, 3, 10, 30 and 100 mg/kg.

[4] = system: Bile Acid Itch Model in Male C57BL/6 Mice; assay: Bile acid (deoxycholic acid) induced itch model (Example 9); settings: 10 mg/kg oral gavage 90 min before deoxycholic acid (25 μg)
Method: In order to assess the antipruritic effect of PF-06372865 in another clinically relevant disease, the bile acid induced itch model is used. In the bile acid induced itch model, the fur at the base of the neck is shaved, and mice are placed in individual cylinders on a glass shelf. Mice are acclimatized to the experimental room, restraint apparatus and investigators for 2-hour periods on 2 successive days before experiments. The mice are dosed with 10 mg/kg PF-06372865 by oral gavage ninety (90) minutes before they are injected with deoxycholic acid. Deoxycholic acid (25 μg in DMSO), is administered by intradermal injection at the nape of the neck. Scratching behavior is quantified by 2 observers unaware of tested agents. A scratch is defined as lifting the hind limb to the injection site and then a placing of the paw on the floor, regardless of the number of strokes. If counts differed by greater than 5 scratches over a 30-minute period, both observers reevaluate the records. The number of scratching bouts directed to the nape of the neck between 15 to 210 min after injection are recorded.

[5] = 10 mg/kg PO, individual animals
[6] = 30 mg/kg PO, individual animals

With `CCn1cnc2c(-c3ccc(F)c(-c4ccc(S(=O)(=O)CC)cc4OC)c3)cnnc21` [PF-06372865] the “Scratching bouts (Nos.) in 30 min, 20-25 min” value (“Scratching bouts … 20-25 min” for short) ([1]; 3 mg/kg PO, individual animals) was 13 Nos. and 0 Nos. (5×) and 14 Nos. and 3 Nos. and 9 Nos, the “Scratching bouts (Nos.) in 30 min, 25-30 min” value (shortened to “Scratching bouts … 25-30 min”) ([1]; 3 mg/kg PO, individual animals) was 9 Nos. and 0 Nos. (5×) and 3 Nos. and 15 Nos. and 4 Nos and the “Total Scratching bouts” value ([1]; 3 mg/kg PO, individual animals) was 99 Nos./30 min and 18 Nos./30 min and 66 Nos./30 min and 29 Nos./30 min and 24 Nos./30 min and 59 Nos./30 min and 3 Nos./30 min and 12 Nos./30 min and 31 Nos./30 min. The “Scratching bouts (Nos.) in 30 min, 0-5 min” value (“Scratching bouts … 0-5 min” below) ([1]; 10 mg/kg PO, MEAN, N=9) was 0.00 Nos, the “Scratching bouts (Nos.) in 30 min, 5-10 min” value (“Scratching bouts … 5-10 min” for short) ([1]; 10 mg/kg PO, MEAN, N=9) was 0.00 Nos and the “Scratching bouts (Nos.) in 30 min, 10-15 min” value (shortened to “Scratching bouts … 10-15 min”) ([1]; 10 mg/kg PO, MEAN, N=9) was 7.33 Nos. For the same compound, the “Scratching bouts (Nos.) in 30 min, 15-20 min” value (“Scratching bouts … 15-20 min” for short) ([1]; 10 mg/kg PO, MEAN, N=9) was 4.11 Nos, the “Scratching bouts … 20-25 min” value ([1]; 10 mg/kg PO, MEAN, N=9) was 2.78 Nos and the “Scratching bouts … 25-30 min” value ([1]; 10 mg/kg PO, MEAN, N=9) was 1.11 Nos. For the same compound, the “Total Scratching bouts” value ([1]; 10 mg/kg PO, MEAN, N=9) was 15.33 Nos./30 min, the “Scratching bouts … 0-5 min” value [1, 5] was 0 Nos and the “Scratching bouts … 5-10 min” value [1, 5] was 0 Nos. For the same compound, the “Scratching bouts … 10-15 min” value [1, 5] was 0 Nos. (7×) and 33 Nos. (2×), the “Scratching bouts … 15-20 min” value [1, 5] was 0 Nos. (6×) and 8 Nos. and 3 Nos. and 26 Nos and the “Scratching bouts … 20-25 min” value [1, 5] was 0 Nos. (6×) and 12 Nos. and 9 Nos. and 4 Nos. For the same compound, the “Scratching bouts … 25-30 min” value [1, 5] was 2 Nos. (2×) and 0 Nos. (6×) and 6 Nos, the “Total Scratching bouts” value [1, 5] was 2 Nos./30 min and 14 Nos./30 min and 41 Nos./30 min and 33 Nos./30 min and 0 Nos./30 min (2×) and 15 Nos./30 min and 3 Nos./30 min and 30 Nos./30 min and the “Scratching bouts … 0-5 min” value ([1]; 30 mg/kg PO, MEAN, N=9) was 0.00 Nos. For the same compound, the “Scratching bouts … 5-10 min” value ([1]; 30 mg/kg PO, MEAN, N=9) was 0.00 Nos, the “Scratching bouts … 10-15 min” value ([1]; 30 mg/kg PO, MEAN, N=9) was 0.00 Nos and the “Scratching bouts … 15-20 min” value ([1]; 30 mg/kg PO, MEAN, N=9) was 0.00 Nos. For the same compound, the “Scratching bouts … 20-25 min” value ([1]; 30 mg/kg PO, MEAN, N=9) was 0.00 Nos, the “Scratching bouts … 25-30 min” value ([1]; 30 mg/kg PO, MEAN, N=9) was 0.00 Nos and the “Total Scratching bouts” value ([1]; 30 mg/kg PO, MEAN, N=9) was 0.00 Nos./30 min. The “Scratching bouts … 0-5 min” value [1, 6] was 0 Nos, the “Scratching bouts … 5-10 min” value [1, 6] was 0 Nos and the “Scratching bouts … 10-15 min” value [1, 6] was 0 Nos. For the same compound, the “Scratching bouts … 15-20 min” value [1, 6] was 0 Nos, the “Scratching bouts … 20-25 min” value [1, 6] was 0 Nos and the “Scratching bouts … 25-30 min” value [1, 6] was 0 Nos. The “Total Scratching bouts” value [1, 6] was 0 Nos./30 min, the “scratching bouts compared to vehicle treatment, significance” value ([1]; at 0.3, 1, 3, 10 and 30 mg/kg doses) was “Statistically significant decrease” and the “total number of scratching bouts, dose response” value ([1]; quantified for 30 minutes post CQ injection, 0.3-30 mg/kg PO) was “dose dependent decrease”. The sedation (Male C57BL/6 Mice; 3 mg/kg PO) was “Minimal sedation”, the “other behavioral change or clinical sign” value (Male C57BL/6 Mice; any of the PF-06372865 treatment groups (0.3-30 mg/kg PO)) was “No other behavioral change or clinical sign were observed” and the sedation (Male C57BL/6 Mice; at 10 mg/kg and 30 mg/kg PO) was “Dose dependent increase in sedation”. For the same compound, the “scratching bouts, histaminergic itch” value [2] was “dose-dependent reduction of scratching bouts”, the “scratching bouts, chloroquine-induced itch” value [3] was “dose-dependent reduction of scratching bouts” and the “scratching bouts compared to vehicle injection” value [4] was “significant reduction in scratching bouts”.
